According to PubChem BioAssay AID248 (DTP/NCI, 2004):
Where “and” joins values, the source holds several entries; their conditions need not be identical. Equal entries are not always repeated. Inconclusive results and toxic doses are left out. Cut-off read from the data, not from the text of the source: active = T/C of 150% or more; inactive = T/C below 125%.

Test system: L1210 leukemia ip in BDF1 mice, survival T/C
Assay: NCI In Vivo Anticancer Drug Screen. Data for tumor model L1210 Leukemia (intraperitoneal) in B6D2F1 (BDF1) mice
Conditions: endpoint: mean survival time, higher = longer survival
In short: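 Tumor was transplanted into mice, which were then dosed with test compound or vehicle alone. Survival was recorded for each group, and the treated figure was expressed relative to the control figure.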

[1] = dose: 25.0 mg/kg/injection, schedule: Q01DX009 (ip), vehicle: Klucel (hydroxypropylcellulose) (HPC)
[2] = dose: 100.0 mg/kg/injection, schedule: Q01DX009 (ip), vehicle: Klucel (hydroxypropylcellulose) (HPC)
[3] = dose: 100.0 mg/kg/injection, schedule: Q04DX003 (ip), vehicle: saline with Tween-80
[4] = dose: 200.0 mg/kg/injection, schedule: Q04DX003 (ip), vehicle: saline with Tween-80
[5] = dose: 400.0 mg/kg/injection, schedule: Q04DX003 (ip), vehicle: saline with Tween-80
[6] = dose: 50.0 mg/kg/injection, schedule: Q04DX003 (ip), vehicle: saline with Tween-80
[7] = dose: 100.0 mg/kg/injection, schedule: Q01DX001 (ip), vehicle: saline
[8] = dose: 200.0 mg/kg/injection, schedule: Q01DX001 (ip), vehicle: saline
[9] = dose: 100.0 mg/kg/injection, schedule: Q04DX002 (ip), vehicle: saline with Tween-80
[10] = dose: 200.0 mg/kg/injection, schedule: Q04DX002 (ip), vehicle: saline with Tween-80
[11] = dose: 400.0 mg/kg/injection, schedule: Q04DX002 (ip), vehicle: saline with Tween-80
[12] = dose: 100.0 mg/kg/injection, schedule: Q04DX003 (ip), vehicle: Klucel (hydroxypropylcellulose) (HPC)
[13] = dose: 200.0 mg/kg/injection, schedule: Q04DX003 (ip), vehicle: Klucel (hydroxypropylcellulose) (HPC)
[14] = dose: 400.0 mg/kg/injection, schedule: Q04DX003 (ip), vehicle: Klucel (hydroxypropylcellulose) (HPC)
[15] = dose: 100.0 mg/kg/injection, schedule: Q01DX009 (ip), vehicle: saline with Tween-80
[16] = dose: 200.0 mg/kg/injection, schedule: Q01DX009 (ip), vehicle: saline with Tween-80
[17] = dose: 400.0 mg/kg/injection, schedule: Q01DX009 (ip), vehicle: saline with Tween-80
[18] = dose: 200.0 mg/kg/injection, schedule: Q01DX009 (ip), vehicle: Klucel (hydroxypropylcellulose) (HPC)
[19] = dose: 400.0 mg/kg/injection, schedule: Q01DX009 (ip), vehicle: Klucel (hydroxypropylcellulose) (HPC)

Measured: T/C

COc1ccc(C2Nc3ccccc3NC3CC(C)(C)CC(=O)C32)cc1 (stereo unspecified)
inactive: dose: 100.0 mg/kg/injection, schedule: Q04DX002 (ip), vehicle: Klucel (hydroxypropylcellulose) (HPC) 120 % of control | dose: 200.0 mg/kg/injection, schedule: Q04DX002 (ip), vehicle: Klucel (hydroxypropylcellulose) (HPC) 98 % of control | dose: 400.0 mg/kg/injection, schedule: Q04DX002 (ip), vehicle: Klucel (hydroxypropylcellulose) (HPC) 109 % of control

N#Cc1nc2ccc(Cl)cc2nc1C#N
inactive: [1] 104 % of control | dose: 50.0 mg/kg/injection, schedule: Q01DX009 (ip), vehicle: Klucel (hydroxypropylcellulose) (HPC) 105 % of control | [2] 95 % of control and 102 % of control

COC1OC(COC(=O)c2ccccc2)C(OC(=O)N(C)c2ccccc2)C1OC (stereo unspecified)
inactive: [3] 98 % of control | [4] 92 % of control | [5] 95 % of control

CCCC[As](=O)(O)CCO
inactive: dose: 25.0 mg/kg/injection, schedule: Q04DX003 (ip), vehicle: saline with Tween-80 102 % of control | [6] 94 % of control

NCC(O)C(O)C(O)C(O)CO (stereo unspecified)
inactive: [7] 103 % of control | [8] 95 % of control

O=C(O)c1cccc(F)c1O
inactive: [7] 97 % of control | [8] 97 % of control

CCCCCCCCCCCCCCCC[n+]1ccccc1
inactive: dose: 0.12 mg/kg/injection, schedule: Q01DX Z (ip), vehicle: water 101 % of control | dose: 0.25 mg/kg/injection, schedule: Q01DX Z (ip), vehicle: water 101 % of control | dose: 0.5 mg/kg/injection, schedule: Q01DX Z (ip), vehicle: water 108 % of control | dose: 1.0 mg/kg/injection, schedule: Q01DX Z (ip), vehicle: water 103 % of control

CC(C)(C=O)CO
inactive: [9] 94 % of control | [10] 97 % of control | [11] 91 % of control

O=[N+]([O-])c1ncn(Cc2ccccc2)c1Br
inactive: [12] 91 % of control | [13] 94 % of control | [14] 89 % of control

CC1CC(C(C)(C)C)CCC1S (stereo unspecified)
inactive: dose: 100.0 mg/kg/injection, schedule: Q01DX009 (ip), vehicle: saline 95 % of control | dose: 200.0 mg/kg/injection, schedule: Q01DX009 (ip), vehicle: saline 88 % of control

Nc1cccc(CO)c1
inactive: [9] 104 % of control | [10] 90 % of control | [11] 90 % of control

Cc1c(CCO)sc[n+]1Cc1cccc([N+](=O)[O-])c1
inactive: [7] 98 % of control

COc1ccc(CC(=O)N2CCc3cc(OC)c(OC)cc3C2O)cc1OC (stereo unspecified)
inactive: [15] 96 % of control | [3] 100 % of control | [16] 91 % of control | [4] 103 % of control | [17] 88 % of control | [5] 102 % of control

O=S1(=O)C(Cl)c2ccccc2-c2ccccc2C1Cl (stereo unspecified)
inactive: dose: 25.0 mg/kg/injection, schedule: Q04DX002 (ip), vehicle: gum acacia 89 % of control | dose: 50.0 mg/kg/injection, schedule: Q04DX002 (ip), vehicle: gum acacia 89 % of control | dose: 100.0 mg/kg/injection, schedule: Q04DX002 (ip), vehicle: gum acacia 93 % of control

O=C(NO)Nc1nc(Cl)c(Cl)nc1Cl
inactive: dose: 25.0 mg/kg/injection, schedule: Q01DX009 (ip), vehicle: water 94 % of control | dose: 50.0 mg/kg/injection, schedule: Q01DX009 (ip), vehicle: water 100 % of control

CC1=NN(c2ccccc2)C(=O)C1C(=O)c1ccccc1 (stereo unspecified)
inactive: dose: 25.0 mg/kg/injection, schedule: Q01DX009 (ip), vehicle: saline with Tween-80 92 % of control | dose: 50.0 mg/kg/injection, schedule: Q01DX009 (ip), vehicle: saline with Tween-80 95 % of control | [3] 94 % of control

COc1ccc(Cl)cc1NS(=O)(=O)c1ccc(Cl)cc1
inactive: [2] 97 % of control | [18] 102 % of control | [19] 92 % of control

CCCCCCCC(=O)Nc1cc2c3c(c1)CCCN3CCC2
inactive: [6] 103 % of control | [3] 97 % of control | [4] 103 % of control

NC(N)=NCCCC(NC(=O)c1ccccc1)C(=O)Nc1ccc([N+](=O)[O-])cc1 (stereo unspecified)
inactive: [15] 89 % of control | dose: 100.0 mg/kg/injection, schedule: Q04DX003 (ip), vehicle: saline 104 % of control | [16] 95 % of control | dose: 200.0 mg/kg/injection, schedule: Q04DX003 (ip), vehicle: saline 100 % of control | [17] 110 % of control | dose: 400.0 mg/kg/injection, schedule: Q04DX003 (ip), vehicle: saline 98 % of control

O=[N+]([O-])c1cccc2cncc(Br)c12
inactive: dose: 100.0 mg/kg/injection, schedule: Q01DX001 (ip), vehicle: other 95 % of control | dose: 200.0 mg/kg/injection, schedule: Q01DX001 (ip), vehicle: other 106 % of control | dose: 400.0 mg/kg/injection, schedule: Q01DX001 (ip), vehicle: other 104 % of control

CCOC(=O)c1ccc(NC(=O)Nc2cccc(Cl)c2)cc1
inactive: dose: 3.0 mg/kg/injection, schedule: Q01DX009 (ip), vehicle: Klucel (hydroxypropylcellulose) (HPC) 94 % of control | dose: 6.0 mg/kg/injection, schedule: Q01DX009 (ip), vehicle: Klucel (hydroxypropylcellulose) (HPC) 107 % of control | dose: 12.0 mg/kg/injection, schedule: Q01DX009 (ip), vehicle: Klucel (hydroxypropylcellulose) (HPC) 94 % of control | [1] 101 % of control | [2] 93 % of control

C[N+](C)(C)CCCS(=O)(=O)[O-]
inactive: dose: 50.0 mg/kg/injection, schedule: Q01DX001 (sc), vehicle: saline 98 % of control | dose: 100.0 mg/kg/injection, schedule: Q01DX001 (sc), vehicle: saline 98 % of control | dose: 100.0 mg/kg/injection, schedule: Q04DX002 (ip), vehicle: saline 100 % of control | dose: 200.0 mg/kg/injection, schedule: Q01DX001 (sc), vehicle: saline 109 % of control | dose: 200.0 mg/kg/injection, schedule: Q04DX002 (ip), vehicle: saline 111 % of control | dose: 400.0 mg/kg/injection, schedule: Q01DX001 (sc), vehicle: saline 98 % of control | dose: 400.0 mg/kg/injection, schedule: Q04DX002 (ip), vehicle: saline 95 % of control

COc1ccc(C)cc1CN1NC(=O)CC1=N
inactive: [2] 97 % of control | [12] 106 % of control | [18] 101 % of control | [13] 110 % of control | [19] 98 % of control | [14] 102 % of control

Oc1c(-c2ccccc2)c(-c2ccccc2)cc(-c2ccccc2)c1-c1ccccc1
inactive: dose: 100.0 mg/kg/injection, schedule: Q01DX001 (ip), vehicle: saline with Tween-80 102 % of control | dose: 200.0 mg/kg/injection, schedule: Q01DX001 (ip), vehicle: saline with Tween-80 94 % of control | dose: 400.0 mg/kg/injection, schedule: Q01DX001 (ip), vehicle: saline with Tween-80 88 % of control
